{"source": "ChEMBL document CHEMBL5505987", "about": "(Eur J Med Chem, 2024)", "format_in_all_cases": "functional, cell-based", "key": {"A549": {"tested_on": "A549", "assay": "Cytotoxicity against human A549 cells assessed as cell viability by MTT assay"}, "MCF7": {"tested_on": "MCF7", "assay": "Cytotoxicity against human MCF7 cells assessed as cell viability by MTT assay"}, "MDA-MB-231": {"tested_on": "MDA-MB-231", "assay": "Cytotoxicity against human MDA-MB-231 cells assessed as cell viability by MTT assay"}, "HeLa": {"tested_on": "HeLa", "assay": "Cytotoxicity against human HeLa cells assessed as cell viability by MTT assay"}}, "data": [{"smiles": "O=C1C[C@H](c2ccccc2)Oc2cc(O)c([C@H](/C=C/C[C@@H](O)CCc3ccccc3)c3ccccc3)c(O)c21", "values": [{"measurement": "IC50", "setting": "A549", "value": 5.59, "unit": "µM"}, {"measurement": "IC50", "setting": "MCF7", "value": 12.5, "unit": "µM"}, {"measurement": "IC50", "setting": "MDA-MB-231", "value": 3.45, "unit": "µM"}, {"measurement": "IC50", "setting": "HeLa", "value": 1.58, "unit": "µM"}]}]}
